Type in all cases: physicochemical
A short description of series [1]: Solubility study, 24 hour (HPLC of filtrate, XRPD of remaining solids). As to conditions: for solubility at 24 h: thermodynamic from solid. As for the experimental part:
9-ING-41, either Form I or Form II, was added to 1 mL of each of 10 different solvents in a vial to make a suspension. The samples were shaken at 2000 rpm in a shaker at room temperature for 24 hours. Mixtures were visually examined to ensure saturation. After 24 hours, 1 mL of suspension was filtered through a 0.45 um nylon micro-filtration membrane into another clear glass vial, respectively. The filtrate was analyzed by HPLC and the remaining solids were analyzed using XRPD.

A short description of series [2]: Solubility study, 1 hour (Form II added to Form I-saturated filtrates). Conditions: for solubility at 24 h / solubility at 1 h: thermodynamic from solid; for solubility at 24 h: Form I suspension shaken 24 hours, room temperature; for Crystal form of remaining solids (XRPD): 1 hour; for solubility at 1 h: excess Form II added to Form I-saturated filtrate, shaken 1 hour. Here is the method: Step 1: A sufficient amount of Form I was added to 1 mL solvent (EtOH, Labrasol, Benzyl Benzoate, Benzyl Alcohol, PEG400: Tween80: EtOH (75:8:17) and PEG300:BzOH: Water (65:10:25)) to make a suspension. The samples were shaken at 2000 rpm in a shaker at room temperature for 24 hours.
Step 2: The vials were visually examined to ensure saturation. 1 mL of suspension was filtered at 24 hours through a 0.45 μm nylon micro-filtration membrane into another clean clear glass vial. The filtrate was analyzed by HPLC.
Step 3: Excess Form II was added to the 6 residual filtrates from Step 2 to make a suspension, respectively. The samples were shaken at 2000 rpm in a shaker for 1 hour. The suspensions were filtered after 1 hour through a 0.45 μm nylon micro-filtration membrane into another clean glass vial. The filtrate was analyzed by HPLC and the remaining solids were analyzed using XRPD.

Series [3] can be described thus: Solubility in sesame oil (visual estimate). Conditions: for visual result: 24 hours, room temperature; for Estimated solubility: sesame oil, stirred 24 hours at room temperature, visual examination. As for the experimental part:
The solubility of 9-ING-41 in sesame oil cannot be measured by HPLC. The solubility was estimated by adding weighed portions of Form I (or Form II) into sesame oil. The samples were stirred for 24 hours at room temperature and the vials were visually examined to ensure dissolution.

Series [4] can be described thus: Mechanical and pressure effects on crystal form (XRPD). As for the experimental part:
10.0 mg of Form II was weighed into mortar and ground for 5 min. The remaining solid was collected and analyzed by XRPD. […] 4.50 mg of Form II was compressed into tablet. The tablet was then ground into powder and analyzed by XRPD.

The mark [5] stands for this setting: organic solvent or mixture, PEG400:Tween80:EtOH (75:8:17).

We go through 2 compounds from patent publication US20250115615A1, “Solid Forms of 3-(5-Fluorobenzofuran-3-yl)-4-(5-methyl-5H-[1,3]dioxolo[4,5-f]indol-7-yl)pyrrole-2,5-dione” (Actuate Therapeutics Inc., priority 2017, published 2025).

Each structure is given as a SMILES string. ≈ marks a conversion by molar mass, not a printed value.

A word on the solubility: it is the concentration that dissolves in the medium under given conditions. For orientation: Solubility means the dissolved amount per volume that the medium holds. Lower therefore signals little dissolved substance.

Consider `Cn1cc(C2=C(c3coc4ccc(F)cc34)C(=O)NC2=O)c2cc3c(cc21)OCO3` [Form I], for which the solubility at 24 h is 1.27 mg/mL (≈ 3.15 mM) in series [1] (EtOH, organic solvent or mixture, room temperature); 60.5 mg/mL (≈ 150 mM) in series [1] (Labrasol, oil or lipid, room temperature); 5.09 mg/mL (≈ 12.6 mM) in series [1] (PEG300:BzOH:Water (65:10:25), aqueous with cosolvent or surfactant or cyclodextrin, PEG300:BzOH:Water (65:10:25), room temperature); 96.5 mg/mL (≈ 239 mM) in series [1] (PEG400, organic solvent or mixture, PEG400, room temperature); 72.8 mg/mL (≈ 180 mM) in series [1] (PEG400:Tween80:EtOH (75:8:17), organic solvent or mixture, PEG400:Tween80:EtOH (75:8:17), room temperature); 24 mg/mL (≈ 59.5 mM) in series [1] (benzyl alcohol, organic solvent or mixture, room temperature). Also, the solubility at 24 h in series [1] (benzyl benzoate, organic solvent or mixture, room temperature) was 53 mg/mL (≈ 131 mM); in series [1] (dimethyl acetamide, organic solvent or mixture, room temperature) it was above 100 mg/mL; in series [2] (aqueous with cosolvent or surfactant or cyclodextrin, PEG300:BzOH:Water (65:10:25)), 4.96 mg/mL (≈ 12.3 mM); in series [2] (oil or lipid, Labrasol), 61.4 mg/mL (≈ 152 mM); in series [2] (organic solvent or mixture, Benzyl Alcohol), 22.3 mg/mL (≈ 55.2 mM); in series [2] (organic solvent or mixture, Benzyl Benzoate), 48.3 mg/mL (≈ 119 mM). Besides, the solubility at 24 h in series [2] (organic solvent or mixture, EtOH) turned out to be 1.26 mg/mL (≈ 3.11 mM); in series [2] (setting [5]), 73.4 mg/mL (≈ 182 mM). The Solubility entry in series [1] (Water, room temperature) is listed as “Not detected”. Also, the “Crystal form of remaining solids (XRPD)” value in series [1] (all experiments with Form I as starting material) is listed as “remained Form I”. Moreover, the visual result is recorded as “Incomplete” in series [3] (1.00 mg in 3464.12 mg sesame oil) and “dissolution” in series [3] (1.00 mg in 5997.92 mg sesame oil). Also, the Estimated solubility in series [3] was 0.167 to 0.289 µg/mg.

As for `Cn1cc(C2=C(c3coc4ccc(F)cc34)C(=O)NC2=O)c2cc3c(cc21)OCO3` [Form II, 3-(5-fluorobenzofuran-3-yl)-4-(5-methyl-5H-[1,3]dioxolo[4,5-f]indol-7-yl) pyrrole-2,5-dione], the Solubility in series [1] (Benzyl Alcohol, room temperature) is on record as 30.553 mg/mL (≈ 75.6 mM); in series [1] (Benzyl Benzoate, room temperature), 73.265 mg/mL (≈ 181 mM); in series [1] (Dimethyl Acetamide, room temperature), above 100 mg/mL; in series [1] (EtOH, room temperature) it was 0.903 mg/mL (≈ 2.23 mM); in series [1] (Labrasol, room temperature) it was 68.455 mg/mL (≈ 169 mM); in series [1] (PEG300:BzOH:Water (65:10:25), room temperature), 9.410 mg/mL (≈ 23.3 mM). Also, the Solubility was above 100 mg/mL in series [1] (PEG400, room temperature); 90.418 mg/mL (≈ 224 mM) in series [1] (PEG400:Tween80:EtOH (75:8:17), room temperature); “Not detected” in series [1] (Water, room temperature). Moreover, the “Crystal form of remaining solids (XRPD)” value in series [1] (ethanol experiment) is given as “the remaining solids were a solvate”; in series [1] (the other experiments (not water, sesame oil, ethanol)), “the solids appeared to be Form I”; in series [1] (water and sesame oil experiments), “the remaining solids were Form II”; in series [2] (EtOH and PEG300:BzOH:Water (65:10:25)), “did not change”; in series [2] (Labrasol, Benzyl Benzoate, Benzyl Alcohol, PEG400:Tween80:EtOH (75:8:17)) it was “rapidly converts to Form I”. The solubility at 1 h in series [2] (filtrate saturated with Form I, aqueous with cosolvent or surfactant or cyclodextrin, PEG300:BzOH:Water (65:10:25)) was found to be 10.2 mg/mL (≈ 25.3 mM); in series [2] (filtrate saturated with Form I, oil or lipid, Labrasol), 87 mg/mL (≈ 215 mM); in series [2] (filtrate saturated with Form I, organic solvent or mixture, Benzyl Alcohol), 39.9 mg/mL (≈ 98.6 mM); in series [2] (filtrate saturated with Form I, organic solvent or mixture, Benzyl Benzoate), 71.8 mg/mL (≈ 178 mM); in series [2] (filtrate saturated with Form I, organic solvent or mixture, EtOH), 2.55 mg/mL (≈ 6.3 mM); in series [2] (setting [5]), 106 mg/mL (≈ 262 mM). Moreover, the visual result is recorded as “dissolution” in series [3] (0.90 mg in 1214.50 mg sesame oil) and “Incomplete” in series [3] (3.18 mg in 2638.01 mg sesame oil). Also, the Estimated solubility in series [3] was 0.741 to 1.21 µg/mg. The “Crystal form after compression (XRPD)” value in series [4] (4.50 mg compressed into tablet, then ground into powder) is listed as “no effect on the crystalline form”. Moreover, in series [4] (10.0 mg ground in mortar for 5 min), the “Crystal form after grinding (XRPD)” value was “remained Form II”.
